Reference: US5397781A, “Pyrimidine derivatives” (Mochida Pharmaceutical Company, Limited, priority 1992, dated 1995)

Target: T1, ACAT (Rattus norvegicus, UniProt Q7TQM4)
T1 construct: Liver microsomes as an enzyme sample of ACAT were prepared from overnight-fasted male rats; from tissue; host or cells: liver of overnight-fasted male rats, 6 weeks old; microsomes
T1 sequence (Q7TQM4 1-524): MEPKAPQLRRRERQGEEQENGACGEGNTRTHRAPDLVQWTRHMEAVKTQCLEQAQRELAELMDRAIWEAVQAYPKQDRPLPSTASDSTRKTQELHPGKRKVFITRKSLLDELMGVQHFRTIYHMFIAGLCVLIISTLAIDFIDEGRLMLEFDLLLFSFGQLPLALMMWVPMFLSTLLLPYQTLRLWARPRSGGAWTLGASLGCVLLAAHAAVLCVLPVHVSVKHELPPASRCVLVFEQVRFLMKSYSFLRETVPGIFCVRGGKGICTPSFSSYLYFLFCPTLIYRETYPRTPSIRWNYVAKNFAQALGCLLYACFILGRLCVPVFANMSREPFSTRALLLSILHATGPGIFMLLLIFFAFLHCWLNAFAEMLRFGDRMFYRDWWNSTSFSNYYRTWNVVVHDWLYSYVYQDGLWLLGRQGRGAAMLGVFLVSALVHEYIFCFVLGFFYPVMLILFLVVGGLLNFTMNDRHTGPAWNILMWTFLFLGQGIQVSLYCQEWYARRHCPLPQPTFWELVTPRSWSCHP
Assay: Inhibitory effect on microsomal ACAT activity in rat liver
Assay type: biochemical
Settings: rat liver microsomes; read-out: IC50 (50% inhibition of cholesterol esterification)

Row | Compound | IC50
1 | CCN(CC)c1nc(C)nc(S)c1NC(=O)CCCN1CCCc2ccccc21 [Example 183, N-[4-(N,N-diethylamino)-6-mercapto-2-methylpyrimidin-5-yl]-4-(tetrahydroquinolino)butanamide] | 280 nM
2 | CCCN(CCCCC(=O)Nc1c(S)nc(C)nc1N(CCC)CCC)c1ccccc1 [Example 188, N-[4-(N,N-dipropylamino)-6-mercapto-2-methylpyrimidin-5-yl]-5-(N-phenyl-N-propylamino)pentanamide] | 35 nM
3 | CCCCCCN(CCCC(=O)Nc1c(S)nc(C)nc1N(CCC)CCC)c1ccccc1 [Example 156, N-[4-(N,N-dipropylamino)-6-mercapto-2-methylpyrimidin-5-yl]-4-(N-hexyl-N-phenylamino)butanamide] | 38 nM
4 | CCCCN(CCCC)c1nc(C)nc(S)c1NC(=O)CCCN(CCC)c1ccccc1 [Example 146, N-[4-(N,N-dibutylamino)-6-mercapto2-methylpyrimidin-5-yl]-4-(N-phenyl-N-propylamino)butanamide] | 110 nM
5 | CCCCN(CCCC)c1ncnc(OCC)c1NC(=O)CCCCN(CCC)c1ccccc1 [Example 197, N-[4-(N,N-dibutylamino)-6-ethoxypyrimidin-5-yl]-5-(N-phenyl-N-propylamino)pentanamide] | 8.8 nM
6 | CCN(CC)c1nc(C)nc(SC)c1NC(=O)CCCN(C)c1ccccc1 [Example 224, N-[4-(N,N-diethylamino)-2-methyl-6-methylthiopyrimidin-5-yl]-4-(N-methyl-N-phenylamino)butanamide] | 220 nM
7 | CCCCCCN(CCCC(=O)Nc1c(OC)nc(C)nc1N(CC)CC)c1ccccc1 [Example 166, N-[4-(N,N-diethylamino)-6-methoxy-2-methylpyrimidin-5-yl]-4-(N-hexyl-N-phenylamino)butanamide] | 81 nM
8 | CCCCCCN(CCCC(=O)Nc1c(OC)nc(C)nc1N(CCC)CCC)c1ccccc1 [Example 167, N-[4-(N,N-dipropylamino)-6-methoxy-2-methylpyrimidin-5-yl]-4-(N-hexyl-N-phenylamino)butanamide] | 43 nM
9 | CCCN(CCCCC(=O)Nc1c(S)nc(C)nc1N(CC)CC)c1ccccc1 [Example 187, N-[4-(N,N-diethylamino)-6-mercapto-2-methylpyrimidin-5-yl]-5-(N-phenyl-N-propylamino)pentanamide] | 47 nM
10 | CCCCN(CCCC)c1nc(C)nc(OC)c1NC(=O)CCCCN(CCC)c1ccccc1 [Example 195, N-[4-(N,N-dibutylamino)-6-methoxy-2-methylpyrimidin-5-yl]-5-(N-phenyl-N-propylamino)pentanamide] | 47 nM
11 | CCCCCCN(CCCC(=O)Nc1c(SC)nc(C)nc1N(CCCC)CCCC)c1ccccc1 [Example 227, N-[4-(N,N-dibutylamino)-2-methyl-6-methylthiopyrimidin-5-yl]-4-(N-hexyl-N-phenylamino)butanamide] | 110 nM
12 | CCCN(CCCCC(=O)Nc1c(S)nc(C)nc1N(CCC)c1ccccc1)c1ccccc1 [Example 185, N-[4-mercapto-2-methyl-6-(N-phenyl-N-propylamino)pyrimidin-5-yl]-5-(N-phenyl-N-propylamino)pentanamide] | 79 nM
13 | CCCN(CCCCCC(=O)Nc1c(S)nc(C)nc1N(CCC)c1ccccc1)c1ccccc1 [Example 205, N-[4-mercapto-2-methyl-6-(N-phenyl-N-propylamino)pyrimidin-5-yl]-6-(N-phenyl-N-propylamino)hexanamide] | 280 nM
14 | CCCN(CCCC(=O)Nc1c(SC)nc(C)nc1N(CCC)c1ccccc1)c1ccccc1 [Example 218, N-[2-methyl-4-methylthio-6-(N-phenyl-N-propylamino)pyrimidin-5-yl]-4-(N-phenyl-N-propylamino)butanamide] | 430 nM
15 | CCCN(CCCC(=O)Nc1c(S)nc(C)nc1N(CC)CC)c1ccccc1 [Example 145, N-[4-(N,N-diethylamino)-6-mercapto-2-methylpyrimidin-5-yl]-4-(N-phenyl-N-propylamino)butanamide] | 80 nM
16 | CCCCCCN(CCCC(=O)Nc1c(SC)nc(C)nc1N(CCC)CCC)c1ccccc1 [Example 226, N-[4-(N,N-dipropylamino)-2-methyl-6-methylthiopyrimidin-5-yl]-4-(N-hexyl-N-phenylamino)butanamide] | 16 nM
17 | CCCN(CC(=O)Nc1c(SC)nc(C)nc1N(CC)CC)Cc1ccccc1 [Example 210, 2-(N-benzyl-N-propylamino) N-[4-(N,N-diethylamino)-2-methyl-6-methylthiopyrimidin-5-yl]acetamide] | 470 nM
18 | CCCN(CCCC(=O)Nc1c(S)nc(C)nc1N(CC)CC)c1ccc(OC)cc1 [Example 173, N-[4-(N,N-diethylamino)-6-mercapto-2-methylpyrimidin-5-yl]-4-[N-(4-methoxyphenyl)-N-propylamino]butanamide] | 170 nM
19 | CCCCCCN(CCCC(=O)Nc1c(OC)nc(SC)nc1N(CC)CC)c1ccccc1 [Example 168, N-[4-(N,N-diethylamino)-6-methoxy-2-methylthiopyrimidin-5-yl]-4-(N-hexyl-N-phenylamino)butanamide] | 87 nM

More lines, now with the values ahead:

Row | IC50 | Compound
20 | 83 nM | CCCCc1ccc(N(CCC)CCCC(=O)Nc2c(SC)nc(C)nc2N(CC)CC)cc1 [Example 237, 4-[N-(4-butylphenyl)-N-propylamino]-N-[4-(N,N-diethylamino)-2-methyl-6-methylthiopyrimidin-5-yl]butanamide]
21 | 190 nM | CCN(CC)c1nc(C)nc(SC)c1NC(=O)CCCN1CCCc2ccccc21 [Example 244, N-[4-(N,N-diethylamino)-2-methyl-6-methylthiopyrimidin-5-yl]-4-(N-tetrahydroquinolino)butanamide]
22 | 23 nM | CCCCCCN(CCCC(=O)Nc1c(SCCC)nc(C)nc1N(CC)CC)c1ccccc1 [Example 261, N-[4-(N,N-dietylamino)-2-methyl-6-propylthiopyrimidin-5-yl]-4-(N-hexyl-N-phenylamino)butanamide]
23 | 230 nM | CCCN(CCCC(=O)Nc1c(SCc2ccccc2)nc(C)nc1N(CCC)c1ccccc1)c1ccccc1 [Example 258, N-[4-benzylthio-2-methyl-6-(N-phenyl-N-propylamino)pyrimidin-5-yl]-4-(N-phenyl-N-propylamino)butanamide]
24 | 32 nM | CCCCCCCCCCN(CCCC(=O)Nc1c(SC)nc(C)nc1N(CC)CC)c1ccccc1 [Example 236, 4-(N-decyl-N-phenylamino)-N-[4-(N,N-diethylamino)-2-methyl-6-methylthiopyrimidin-5-yl]butanamide]
25 | 56 nM | CCCN(CCCC(=O)Nc1c(SC)nc(C)nc1C(C)C)c1ccccc1 [Example 268, N-(4-isopropyl-2-methyl-6-methylthiopyrimidin-5-yl)-4-(N-phenyl-N-propylamino)butanamide]
26 | 37 nM | CCCCCCN(CCCC(=O)Nc1c(SC)nc(C)nc1N(CC)CC)c1ccc(Br)cc1 [Example 272, 4-[N-(4-bromophenyl)-N-hexylamino]-N-[4-(N,N-diethylamino)-2-methyl-6-methylthiopyrimidin-5yl]butanamide]
27 | 170 nM | CCCN(CCCC(=O)Nc1c(C(C)C)nc(C)nc1N(CC)CC)c1ccccc1 [Example 266, N-[4-(N,N-diethylamino)-6-isopropyl-2-methylpyrimidin-5-yl]-4-(N-phenyl-N-propylamino)butanamide]
28 | 25 nM | CCCCCCN(CCCC(=O)Nc1c(SC)nc(SC)nc1N(CC)CC)c1ccccc1 [Example 234, N-[4-(N,N-diethylamino)-2,6-bis(methylthio)pyrimidin-5-yl]-4-(N-hexyl-N-phenylamino)butanamide]
29 | 32 nM | CCCN(CCCCC(=O)Nc1c(SC)nc(C)nc1N(CC)Cc1ccccc1)c1ccccc1 [Example 248, N-[4-(N-benzyl-N-ethylamino)-2-methyl-6-methylthiopyrimidin-5-yl]-5-(N-phenyl-N-propylamino)pentanamide]
30 | 9.6 nM | CCCCN(CCCC)c1ncnc(SC)c1NC(=O)CCCCN(CCC)c1ccccc1 [Example 250, N-[4-(N,N-dibutylamino)-6-methylthiopyrimidin-5-yl]-5-(N-phenyl-N-propylamino)pentanamide]
31 | 26 nM | CCN(CC)c1nc(C)nc(SC)c1NC(=O)CCCN(c1ccccc1)C1CCCCCC1 [Example 235, 4-(N-cycloheptyl-N-phenylamino)-N-[4-(N,N-diethylamino)-2-methyl-6-methylthiopyrimidin-5-yl]butanamide]
32 | 76 nM | CCCN(CCCC(=O)Nc1c(SC)nc(C)nc1N(CC)CC)c1ccc(F)cc1F [Example 241, N-[4-(N,N-diethylamino)-2-methyl-6-methylthiopyrimidin-5-yl]-4-[N-(2,4-difluorophenyl)-N-propylamino]butanamide]
33 | 95 nM | CCCCCCCN(CCCC(=O)Nc1c(SC)nc(C)nc1N(CC)CC)Cc1ccccc1 [Example 243, 4-(N-benzyl-N-heptylamino)-N-[4-(N,N-diethylamino)-2-methyl-6-methylthiopyrimidin-5-yl]butanamide]
34 | 120 nM | CCCCCCN(CCCC(=O)Nc1c(SC)nc(C)nc1N(CC)CC)c1ccc(OC)cc1 [Example 239, N-[4-(N,N-diethylamino)-2-methyl-6-methylthiopyrimidin-5-yl]-4-[N-hexyl-N-(4-methoxyphenyl)amino]butanamide]
